Patent publication US20250144125A1 (priority 2021, published 2025)
Entries after “also recorded” stand apart in the source; their conditions may differ. Read-outs that look alike come from different tables or passages of the source.

How the values were obtained:
in vitro [1] = settings: dog, CC50 MDCK
Influenza A (H3N2) = test: microbe, parasite or virus in culture; type: cell-based; settings: H3N2, MDCK, read-out: EC50 Influenza A (H3N2)
Vero cells = settings: African green monkey
in vitro [2] = settings: African green monkey
Influenza A (H5N1) = test: microbe, parasite or virus in culture; type: cell-based; settings: H5N1, MDCK, read-out: EC50 Influenza A (H5N1)
[3] = tested on: measles virus (CC strain); test: microbe, parasite or virus in culture; type: cell-based
MERS-CoV (EMC strain) = test: microbe, parasite or virus in culture; type: cell-based
[4] = tested on: tacaribe virus (TRVL11573 strain); test: microbe, parasite or virus in culture; type: cell-based; settings: read-out: Tacaribe virus EC50 TRVL 11573 strain
[5] = tested on: influenza A (H1N1) virus (California/07/2009 strain); test: microbe, parasite or virus in culture; type: cell-based
[6] = tested on: dengue virus 2 (New Guinea C strain); test: microbe, parasite or virus in culture; type: cell-based
[7] = tested on: enterovirus-71 (Tainan/4643/98 strain); test: organism not typed; type: cell-based; settings: Vero 76, read-out: EC50 enterovirus-71
MDCK cells = settings: dog
Huh7 cells = settings: read-out: Yellow fever virus CC50 Huh7, YFV screen
Influenza B = test: microbe, parasite or virus in culture; type: cell-based; settings: MDCK, read-out: EC50 Influenza B
in vitro [8] = settings: African green monkey, Tacaribe virus CC50 Vero

CCc1ncnc2c1c(F)cn2[C@@H]1O[C@H](CO)[C@@H](O)[C@H]1O [3.1r, 6-Ethyl-7-Fluoro-9-β-D-ribofuranosyl-7-deazapurine]
CC50 (in vitro [1]): 32 µM | EC50 (Influenza A (H3N2)): < 0.1 µM | CC50 (Vero cells): 59 µM | CC50 (in vitro [2]; CC50): > 100 µM | CC50 (in vitro [2]; Measles CC50 Vero 76): 32 µM | EC50 (Influenza A (H5N1)): < 0.1 µM | EC50 ([3]; Measles morbillivirus, Vero 76, read-out: Measles EC50 CC strain): 7.7 µM | EC50 ([3]; read-out: Measles EC50 CC strain): 9.6 µM | activity against MERS-CoV in words (MERS-CoV (EMC strain)): moderately active with low selectivity index; also recorded: low micromolar to submicromolar activity | EC50 (MERS-CoV (EMC strain); Middle East respiratory syndrome-related coronavirus, Vero 76, read-out: MERS-CoV EC50 EMC strain): 3 µM | EC50 (MERS-CoV (EMC strain); read-out: MERS-CoV EC50 EMC strain): 2.5 µM | EC50 ([4]; Mammarenavirus tacaribeense, Vero): > 63 µM | EC50 [4]: 43 µM | EC50 ([5]; Influenza A virus, H1N1, MDCK, read-out: EC50 California/07/2009 strain): 0.34 µM | EC50 ([5]; Influenza A virus, H1N1, MDCK, read-out: EC50 Influenza A (H1N1)): 0.34 µM | EC50 ([5]; read-out: EC50 California/07/2009 strain): 0.32 µM | activity against dengue virus 2 in words [6]: low micromolar to submicromolar activity | EC50 [7]: > 100 µM | CC50 (MDCK cells): 43 µM | CC50 (Vero 76 cells; African green monkey): 42 µM | CC50 (Vero 76 cells; read-out: MERS-CoV CC50 Vero 76, Neutral Red, MERS-CoV screen): 46 µM | CC50 (Vero 76 cells; read-out: MERS-CoV CC50 Vero 76, Visual, MERS-CoV screen): 100 µM | CC50 (Huh7 cells; Neutral Red): 1.9 µM | CC50 (Huh7 cells; Visual): > 100 µM | EC50 (Influenza B): < 0.1 µM | CC50 (in vitro [8]): 63 µM
